Measured values taken from US8846698B2, “Pyrrolo[2,3-d]pyrimidine tropomysin-related kinase inhibitors” (Pfizer Limited, priority 2011, dated 2014).

Molecular target: TRKA (Homo sapiens (Human), UniProt P04629)
Assay: Isolated TRK enzyme assay (HTRF KinEASE-TK), TRKA
Type: biochemical
Details: read-out: Trka enzyme (IC50)

Chain of TRKA (P04629 441-796): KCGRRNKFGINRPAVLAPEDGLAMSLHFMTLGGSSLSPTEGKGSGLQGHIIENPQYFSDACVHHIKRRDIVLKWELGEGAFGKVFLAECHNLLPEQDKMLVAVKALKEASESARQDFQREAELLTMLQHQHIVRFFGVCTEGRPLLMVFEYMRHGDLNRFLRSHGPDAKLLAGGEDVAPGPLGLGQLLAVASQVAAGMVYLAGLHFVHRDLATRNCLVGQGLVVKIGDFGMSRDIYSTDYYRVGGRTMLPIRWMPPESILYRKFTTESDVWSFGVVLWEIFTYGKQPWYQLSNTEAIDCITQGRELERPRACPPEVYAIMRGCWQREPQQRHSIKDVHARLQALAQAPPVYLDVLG

SMILES | IC50
CC(C)n1cc(C(=O)c2cncc(NC(=O)Cc3ccc(Cl)cc3)c2)c2cnc(N)nc21 [Example 250, N-{5-[(2-amino-7-isopropyl-7H-pyrrolo[2,3-d]pyrimidin-5-yl)carbonyl]pyridin-3-yl}-2-(4-chlorophenyl)acetamide] | 3.48 nM
CC(C)n1cc(C(=O)c2cncc(NC(=O)Cc3ccc4onc(N)c4c3)c2)c2cncnc21 [Example 83, 2-(3-amino-1,2-benzisoxazol-5-yl)-N-{5-[(7-isopropyl-7H-pyrrolo[2,3-d]pyrimidin-5-yl)carbonyl]pyridin-3-yl}acetamide] | 355 nM
C[C@H](CO)n1cc(C(=O)c2cncc(NC(=O)Cc3ccc4cccnc4c3)c2)c2cncnc21 [Example 210, N-[5-({7-[(1R)-2-hydroxy-1-methylethyl]-7H-pyrrolo[2,3-d]pyrimidin-5-yl}carbonyl)pyridin-3-yl]-2-quinolin-7-ylacetamide] | 185 nM
CC(C)n1cc(C(=O)c2cncc(NC(=O)Cc3ccc(Cl)cc3)c2)c2cncnc21 [Example 69, 2-(4-chlorophenyl)-N-{5-[(7-isopropyl-7H-pyrrolo[2,3-d]pyrimidin-5-yl)carbonyl]pyridin-3-yl}acetamide] | 10.9 nM
Cc1nc(C)c2ncn(CC(=O)Nc3cncc(C(=O)c4cn(C(C)C)c5ncncc45)c3)c2n1 [Example 122, 2-(2,6-dimethyl-9H-purin-9-yl)-N-{5-[(7-isopropyl-7H-pyrrolo[2,3-d]pyrimidin-5-yl)carbonyl]pyridin-3-yl}acetamide] | 5840 nM
CC(C)n1cc(C(=O)c2cncc(NC(=O)c3ccn4ccnc4c3)c2)c2cncnc21 [Example 432, Imidazo[1,2-a]pyridine-7-carboxylicacid [5-(7-isopropyl-7H-pyrrolo[2,3-d]pyrimidine-5-carbonyl)-pyridin-3-yl]amide] | 2790 nM
CC(C)n1cc(C(=O)c2cncc(NC(=O)Cc3cccc(C(F)(F)F)c3)c2)c2cnc(N)nc21 [Example 245, N-{5-[(2-amino-7-isopropyl-7H-pyrrolo[2,3-d]pyrimidin-5-yl)carbonyl]pyridin-3-yl}-2-[3-(trifluoromethyl)phenyl]acetamide] | 4.7 nM
COCc1ccc(CC(=O)Nc2cncc(C(=O)c3cn(C)c4ncncc34)c2)cc1 [Example 333, 2-[4-(methoxymethyl)phenyl]-N-{5-[(7-methyl-7H-pyrrolo[2,3-d]pyrimidin-5-yl)carbonyl]pyridin-3-yl}acetamide] | 9800 nM
CC(C)n1cnc(C(=O)Nc2cncc(C(=O)c3cn(C(C)C)c4ncncc34)c2)c1 [Example 434, 1-Isopropyl-1H-imidazole-4-carboxylic acid [5-(7-isopropyl-7H-pyrrolo[2,3-d]pyrimidine-5-carbonyl)-pyridin-3-yl]-amide] | 99.9 nM
Cc1ccc2ccc(CC(=O)Nc3cncc(C(=O)c4cn(C(C)C)c5ncncc45)c3)cc2n1 [Example 155, N-{5-[(7-isopropyl-7H-pyrrolo[2,3-d]pyrimidin-5-yl)carbonyl]pyridin-3-yl}-2-(2-methylquinolin-7-yl)acetamide] | 49.1 nM
Cn1cc(C(=O)c2cncc(NC(=O)Cc3ccc(-c4ccccc4)cc3)c2)c2cncnc21 [Example 183, 2-biphenyl-4-yl-N-{5-[(7-methyl-7H-pyrrolo[2,3-d]pyrimidin-5-yl)carbonyl]pyridin-3-yl}acetamide] | 1850 nM
CC(C)n1cc(C(=O)c2cncc(NC(=O)Cc3ccc4nccnc4c3)c2)c2cncnc21 [Example 81, N-{5-[(7-isopropyl-7H-pyrrolo[2,3-d]pyrimidin-5-yl)carbonyl]pyridin-3-yl}-2-quinoxalin-6-ylacetamide] | 197 nM
CC(C)n1cc(C(=O)c2cncc(NC(=O)c3nc[nH]n3)c2)c2cncnc21 [Example 424, 1H-1,2,4-Triazole-3-carboxylic acid[5-(7-isopropyl-7H-pyrrolo[2,3-d]pyrimidine-5-carbonyl)-pyridin-3-yl]-amide] | 4310 nM
COc1nc(C(=O)Nc2cncc(C(=O)c3cn(C(C)C)c4ncncc34)c2)cn2ccnc12 [Example 435, 8-Methoxy-imidazo[1,2-a]pyrazine-6-carboxylic acid [5-(7-isopropyl-7H-pyrrolo[2,3-d]pyrimidine-5-carbonyl)-pyridin-3-yl]amide] | 5490 nM
CC(C)n1cc(C(=O)c2cncc(NC(=O)Cn3cnc(Cl)c3Cl)c2)c2cncnc21 [Example 355, 2-(4,5-Dichloro-imidazol-1-yl)-N-[5-(7-isopropyl-7H-pyrrolo[2,3-d]pyrimidine-5-carbonyl)-pyridin-3-yl]-acetamide] | 302 nM
CC(C)n1cc(C(=O)c2cncc(NC(=O)c3cccc(C4(C(F)(F)F)N=N4)c3)c2)c2cncnc21 [Example 290, N-{5-[(7-isopropyl-7H-pyrrolo[2,3-d]pyrimidin-5-yl)carbonyl]pyridin-3-yl}-3-[3-(trifluoromethyl)-3H-diaziren-3-yl]benzamide] | 167 nM
CC(C)c1ccnn1CC(=O)Nc1cncc(C(=O)c2cn(C(C)C)c3ncncc23)c1 [Example 366, 2-(5-Isopropyl-pyrazol-1-yl)-N-[5-(7-isopropyl-7H-pyrrolo[2,3-d]pyrimidine-5-carbonyl)-pyridin-3-yl]-acetamide] | 354 nM
CC(CO)(CO)n1cc(C(=O)c2cncc(NC(=O)Cc3ccc(Cl)cc3)c2)c2cncnc21 [Example 235, 2-(4-chlorophenyl)-N-[5-({7-[2-hydroxy-1-(hydroxymethyl)-1-methylethyl]-7H-pyrrolo[2,3-d]pyrimidin-5-yl}carbonyl)pyridin-3-yl]acetamide] | 70.5 nM
CC(C)n1ncc(CC(=O)Nc2cncc(C(=O)c3cn([C@H](C)CO)c4ncncc34)c2)c1C(F)(F)F [Example 207, N-[5-({7-[(1R)-2-hydroxy-1-methylethyl]-7H-pyrrolo[2,3-d]pyrimidin-5-yl}carbonyl)pyridin-3-yl]-2-[1-isopropyl-5-(trifluoromethyl)-1H-pyrazol-4-yl]acetamide] | 110 nM
Cc1ccc(CCC(=O)Nc2cncc(C(=O)c3cn(C)c4ncncc34)c2)cc1 [Example 330, 3-(4-methylphenyl)-N-{5-[(7-methyl-7H-pyrrolo[2,3-d]pyrimidin-5-yl)carbonyl]pyridin-3-yl}propanamide] | 3100 nM
CCCc1cc(C(=O)Nc2cncc(C(=O)c3cn(C(C)C)c4ncncc34)c2)n(C)n1 [Example 437, 2-Methyl-5-propyl-2H-pyrazole-3-carboxylic acid [5-(7-isopropyl-7H-pyrrolo[2,3-d]pyrimidine-5-carbonyl)-pyridin-3-yl]amide] | 107 nM
Cc1cc(C(=O)Nc2cncc(C(=O)c3cn(C(C)C)c4ncncc34)c2)no1 [Example 462, 5-Methyl-isoxazole-3-carboxylic acid [5-(7-isopropyl-7H-pyrrolo[2,3-d]pyrimidine-5-carbonyl)-pyridin-3-yl]-amide] | 1320 nM
Cn1cc(C(=O)c2cncc(NC(=O)Cc3c(F)ccc(F)c3F)c2)c2cncnc21 [Example 172, N-{5-[(7-methyl-7H-pyrrolo[2,3-d]pyrimidin-5-yl)carbonyl]pyridin-3-yl}-2-(2,3,6-trifluorophenyl)acetamide] | 3840 nM
CC(C)n1cc(C(=O)c2cncc(NC(=O)c3cn4nc(Cl)ccc4n3)c2)c2cncnc21 [Example 515, 6-Chloro-imidazo[1,2-b]pyridazine-2-carboxylic acid [5-(7-isopropyl-7H-pyrrolo[2,3-d]pyrimidine-5-carbonyl)-pyridin-3-yl]-amide] | 1140 nM
